{"source": "patent US9265268B2", "about": "“Method of handling bananas” (priority 2009, dated 2016)", "tested_on": "bananas", "assay": "Example 2X: evaluation process X (extended storage at 14° C.)", "type": "in vivo, Musa", "settings": "non-zero 1-MCP", "description": "Bananas were harvested at 13 weeks of age. Fruit bunches were separated into hands, then washed, and excess latex was removed in chlorinated water tanks using standard commercial practices. The washed hands of bananas were further broken into clusters and treated with fungicide. Clusters were placed into plastic bags; each bag held approximately 1.4 kg (3 lbs) of bananas. The bananas remained in these bags until they were removed for evaluation (see below).\nAt day 5 at approximately 4 pm, the bananas had reached color stage 2.5 to 3.5. Treatment groups PE-3-C, PE-10-C, MAP-3, and MAP-10 were then exposed to 1-MCP overnight at the concentrations shown above.\nSome of the bananas from each group described in Example 2 were evaluated by process “X” as follows: After treatment groups PE-3-C, PE-10-C, MAP-3, and MAP-10 received exposure to 1-MCP, the bananas remained in their bags and were held at approximately 14° C. The bananas were inspected daily while they remained in the bags.", "data": [{"smiles": "CC1=CC1", "note": "[1-MCP, 1-methylcyclopropene]", "values": [{"measurement": "acceptability of bananas", "setting": "MAP bags, day number 17 after treatment, held at 14° C.", "value": "still acceptable"}, {"measurement": "onset of sugar spots", "setting": "MAP bags, held in bags at 14° C.", "value": "showed a delay in the onset of sugar spots"}, {"measurement": "additional time bananas remained acceptable after removal from MAP bags", "setting": "after 17 days at 14° C., stored at approx. 22° C.", "value": "three"}]}]}
